# “Also recorded” adds a separate entry of the source.
# Assays:
# Format in all cases: physicochemical
# [1] = Long-term stability study at −20±5 °C and 5±3 °C away from light (HDPE bottle, LDPE bag, aluminum foil bag); conditions: pure API, current limited stability data
# Source text: (§1) The samples used for the stability study were inner-packaged in an HDPE bottle with a screw cap and outer-packaged in an LDPE bag with a pull button placed in a heat-sealing aluminum foil bag.
# (§2) The water content (mass percentage), content, purity (chemical purity) and enantiomeric excess (e.e %) values were detected at 0, 1, 2, 3, 6, 9, 12, 18, 24, 36 and 42 months, respectively. The samples of batches 024101, 034101 and 044101 were used in the experiments.
# [2] = Stability of AST-3424 solutions (about 90 mg/mL) in different solvents, high-temperature destruction 40 °C, 3 days
# Method: The AST-3424 solutions (contents were about 90 mg/mL) dissolved in different solvents were subjected to high-temperature destruction (40 °C, 3 days). The purity was detected. The destructed solutions were compared with samples not subjected to the destruction (40 °C, 3 days). The stability of AST-3424 in different solvents was examined.
# Purity was determined by using an HPLC method:
# Mobile phase: • A: 10 mmol/L ammonium acetate solution obtained by dissolving ammonium acetate in a mixed solvent of 95% water and 5% acetonitrile by volume ratio; and • B: 8 mmol/L ammonium acetate solution obtained by dissolving ammonium acetate in a mixed solvent of 95% acetonitrile and 5% water by volume ratio; and
# A gradient elution was performed.
# [3] = Choice of solvent during distillation in the preparation of AST-3424
# Source text: In the preparation of the AST-3424, in order to remove the solvent, water, etc., used in the preparation and separation processes by distillation as much as possible, the applicant mixes the oily AST-3424 product separated and purified with various common solvents (ethyl acetate, ethanol, methanol, etc.) and performs distillation under reduced pressure after the mixture is heated at a lower temperature. […] Therefore, ethanol is ultimately used through initial confirmation.
# [4] = Solubility test of AST-3424 in different solvents at 25 °C
# Method: A proper amount of AST-3424 (hereinafter referred to as active pharmaceutical ingredient or API) was taken and placed into a proper container, a solvent was gradually added thereto, the mixture was uniformly shaken, the process of the solution changing from turbidity (excessive oil drops of AST-3424 exist) to clarification (AST-3424 is completely dissolved) was observed, the volume of the solvent for clarifying the mixed solution of AST-3424 was recorded, and the solubility was calculated.
# In addition, water was further used for the experiment.
# [5] = Accelerated stability experiment at 25±2 °C and 60±5% RH away from light; conditions: 25 °C, after 2 months
# Source text: as §1, §2
# [6] = Stability of AST-3424 solutions (about 90 mg/mL) in different solvents, high-temperature destruction 40 °C, 3 days; conditions: dissolved in propylene glycol, compared with other solvents
# [7] = Observation of viscosity of AST-3424 (FIG. 3); conditions: neat AST-3424, FIG. 3
# Source text: Therefore, it is inconvenient to transfer and sub-package it, and solvents are needed to reduce the viscosity thereof.
# [8] = absolute ethanol, 40 °C, 3 days
# [9] = propylene glycol, 40 °C, 3 days
smiles,measurement,setting,value
"C[C@H](OP(=O)(N1CC1)N1CC1)c1ccc([N+](=O)[O-])c(Oc2cccc(C(=O)N(C)C)c2)c1 [AST-3424, (S)-1-(3-(3-N,N-dimethylaminocarbonyl)phenoxy-4-nitrophenyl)-1-ethyl-N,N′bis(ethylene)phosphoramidate]",Stability compared with AST-3424 ethanol solution,[1],better than that of the AST-3424 ethanol solution
same,Chemical purity,[2]; 0 day (not subjected to destruction),99.3%
same,Stability in solvent,[2]; absolute ethanol,stable; also recorded: good solubility and stability
same,Chemical purity,[2]; [8],98.8%
same,Content of AST-3424,[2]; [8],89.5 mg/mL
same,Stability in solvent,[2]; acetonitrile,stable
same,Chemical purity,"[2]; acetonitrile, 40 °C, 3 days",99.3%
same,Content of AST-3424,"[2]; acetonitrile, 40 °C, 3 days",91.0 mg/mL
same,Stability in solvent,[2]; ethyl acetate,stable
same,Chemical purity,"[2]; ethyl acetate, 40 °C, 3 days",96.6%
same,Content of AST-3424,"[2]; ethyl acetate, 40 °C, 3 days",96.1 mg/mL
same,Stability in solvent,[2]; propylene glycol,stable; also recorded: good solubility and stability
same,Chemical purity,[2]; [9],96.8%
same,Content of AST-3424,[2]; [9],83.5 mg/mL
same,Stability in solvent,[2]; water,poor solubility and stability
same,Chemical purity,"[2]; water, 40 °C, 3 days",75.4%
same,Content of AST-3424,"[2]; water, 40 °C, 3 days",89.2 mg/mL
same,solubility,[3]; ethanol,almost infinitely dissolve
same,solubility,[3]; ethyl acetate,not high enough
same,solubility,[3]; methanol,good solubility
same,Phenomenon (solubility in words),"[4]; ethanol, table cell continues '(mutually soluble)'",good solubilities; also recorded: good solubility and stability; also recorded: Very soluble
same,Phenomenon (solubility in words),"[4]; ethyl acetate, table cell continues '(mutually soluble)'",Very soluble
same,solubility,"[4]; organic solvent or mixture, ethanol",> 1000 mg/mL
same,solubility,"[4]; organic solvent or mixture, ethyl acetate",> 1000 mg/mL
same,solubility,"[4]; organic solvent or mixture, propylene glycol",> 100 mg/mL
same,Phenomenon (solubility in words),"[4]; propylene glycol, table cell continues 'soluble'",good solubilities; also recorded: good solubility and stability; also recorded: Freely
same,solubility,[4]; water,~20 mg/mL
same,Phenomenon (solubility in words),"[4]; water, table cell continues 'soluble'",sparingly soluble; also recorded: poor solubility and stability
same,Degradation,[5],degraded rapidly
same,Purity,[5],less than 98%
same,Viscosity,[6],obviously higher viscosity; also recorded: high viscosity
same,Physical state / viscosity,[7],viscous oily substance

# From patent publication US20260373175A1, “STABLE AST-3424 API PRODUCT, PREPARATION METHOD THEREFOR, AND STORAGE THEREOF” (ASCENTAWITS PHARMACEUTICALS, LTD., priority 2022, published 2026)
